The test system of the assay is Haemonchus contortus L3. The assay can be described thus: Haemonchus contortus L3 (HcL3) in vitro test. In kind it is cell-based. The settings on record: minimum effective dose; for in vitro H.c. (L3) MED: exsheathed L3 larvae in vitro, 37° C., observed up to 4 days, n=2. On the procedure:
The Haemonchus contortus L3 (HcL3) test is used to measure the biological activities of the compounds claimed. The assay involves in vitro testing against H. contortus conducted according to the following general procedure.
HcL3 larvae were collected from infected sheep and, after cleaning, stored in water at 12° C. for up to one month. Viable infective larvae were exsheathed using 10% hypochlorite in Glucose Tyrodes balanced salt solution containing antibiotics and resuspended in basal medium (20 g/l bacto-tryptone, 5 g/l yeast extract, 57 g/l glucose, 0.8 g/l di-Potassium hydrogen orthophosphate, 0.8 g/l potassium dihydrogen orthophosphate and […] Hepes with antibiotics). 95 μl worm suspension was added to each well of a 96 well plate.
Test compounds were dissolved in dimethylsulfoxide to give a working stock solution of 20 mg/ml. The stock concentration was diluted 1:10 in Basal media to give 2.0 mg/ml (10% DMSO). 5 μl of the stock compound solution was added to the worm suspension to give a final concentration of 100 μg/ml. Plates were sealed with pressure sensitive film and incubated at 37° C. Observations were made 2 hrs, 24 hrs, 48 hrs, 72 hrs and 4 days post-treatment using an inverted microscope. Activity was recorded if a significant proportion of the worms were dead or adversely affected by the compound when compared to the control well containing 1% DMSO. Compounds were initially tested at 100 μg/ml, wherefrom relevant dose responses (100, 30, 10, 3, 1, 0.3, 0.1 μg/ml) were conducted in duplicate experiments to generate n=2. Data was recorded as minimum effective dose.

Structures are written as SMILES.

With `CC(C#N)(COc1ccc(F)c(C#N)c1)NC(=O)c1ccc(S(F)(F)(F)(F)F)cc1` (stereo not drawn) [Example 27b, N-[1-Cyano-2-(3-cyano-4-fluorophenoxy)-1-methylethyl]-4-(pentafluorothio)benzamide], where the note is “table of Examples 13a-42, 13a/b, 27a/b, 29a/b, 33a/b tested as mixtures of regioisomers”, the “H.c. (L3) MED” value stood at 3 µg/mL.

As to `CC(C#N)(COc1cc(C#N)ccc1C(F)(F)F)NC(=O)c1ccc(S(F)(F)(F)(F)F)cc1` (stereo not drawn) [Example 1b, N-{1-cyano-2-[5-cyano-2-(trifluoromethyl)phenoxy]-1-methylethyl}-4-(pentafluorothio)benzamide], the “in vitro H.c. (L3) MED” value came out at 1 µg/mL.

With `CC(C#N)(COc1ccc(C#N)cc1C(F)(F)F)NC(=O)c1ccc(S(F)(F)(F)(F)F)cc1` (single isomer, unassigned) [Example 3c, N-{1-Cyano-2-[4-cyano-2-(trifluoromethyl)Phenoxy]-1-methylethyl}-4-(pentafluorothio)benzamide], the “in vitro H.c. (L3) MED” value was above 30 µg/mL.

These data come from patent US7608604B2, “Antiparasitic agents” (Pfizer Limited, priority 2007, dated 2009).
